{"source": "patent EP0068617A1", "about": "“Derivatives of clavulanic acid, a process for their preparation and their use” (BEECHAM GROUP PLC, priority 1981, dated 1983)", "assay_in_all_cases": "MIC of amoxycillin in combination with the compound (synergy)", "type_in_all_cases": "cell-based", "conditions_in_all_cases": "amoxycillin alone", "key": {"[1]": {"test_system": "Escherichia coli JT39"}, "[2]": {"test_system": "Kleb. aerogenes E70"}, "[3]": {"test_system": "Staph. aureus Russell"}}, "data": [{"smiles": "CC1(C)S[C@@H]2[C@H](NC(=O)[C@H](N)c3ccc(O)cc3)C(=O)N2[C@H]1C(=O)O", "note": "[Amoxycillin]", "values": [{"measurement": "MIC µg/ml amoxycillin", "setting": "[1]", "result": 2000, "unit": "µg/mL"}, {"measurement": "MIC µg/ml amoxycillin", "setting": "[2]", "result": 1000, "unit": "µg/mL"}, {"measurement": "MIC µg/ml amoxycillin", "setting": "[3]", "result": 500, "unit": "µg/mL"}]}]}
